The subject of one data set is mKC. The experiment in a line: Mouse in vivo cytokine mKC induction (plasma, Searchlight multiplexed cytokine array). The conditions noted are these: RDVs containing luciferase siRNA; plasma 3 hours post dose; relative to PBS control. On the procedure: (§1) FIG. 2: Mouse in vivo Cytokine mKC Induction 3 hour post injection. LNPs utilizing compound 4, in the nominal compositions described immediately above, were evaluated for in vivo efficacy and induction of inflammatory cytokines in a luciferase mouse model. The siRNA targets the mRNA transcript for the firefly (Photinus pyralis) luciferase gene (Accession #M15077). […] The in vivo luciferase model employs a transgenic mouse in which the firefly luciferase coding sequence is present in all cells. ROSA26-LoxP-Stop-LoxP-Luc (LSL-Luc) transgenic mice licensed from the Dana Farber Cancer. Institute are induced to express the Luciferase gene by first removing the LSL sequence with a recombinant Ad-Cre virus (Vector Biolabs). Due to the organo-tropic nature of the virus, expression is limited to the liver when delivered via tail vein injection. Luciferase expression levels in liver are quantitated by measuring light output, using an IVIS imager (Xenogen) following administration of the luciferin substrate (Caliper Life Sciences). Pre-dose luminescence levels are measured prior to administration of the RDVs. […] In vivo efficacy results are expressed as % inhibition of luminescence relative to pre-dose luminescence levels. Plasma cytokine levels were determined using the Searchlight multiplexed cytokine chemoluminescent array (Pierce/Thermo). […]

The test system of data set [1] is mRNA transcript for the firefly (Photinus pyralis) luciferase gene. The experiment in a line: In vivo efficacy in luciferase mouse model (bioluminescence, IVIS imager). The conditions noted are these: tail vein injection; for Average % Inhibition of Bioluminescence: LNPs prepared from the cationic lipid with Luc siRNA, 3 mg Kg^−1, imaged 48 hours post dose, relative to pre-dose luminescence. The protocol:
LNPs utilizing compound 4, in the nominal compositions described immediately above, were evaluated for in vivo efficacy and induction of inflammatory cytokines in a luciferase mouse model. The siRNA targets the mRNA transcript for the firefly (Photinus pyralis) luciferase gene (Accession #M15077). […] The in vivo luciferase model employs a transgenic mouse in which the firefly luciferase coding sequence is present in all cells. ROSA26-LoxP-Stop-LoxP-Luc (LSL-Luc) transgenic mice licensed from the Dana Farber Cancer. Institute are induced to express the Luciferase gene by first removing the LSL sequence with a recombinant Ad-Cre virus (Vector Biolabs). Due to the organo-tropic nature of the virus, expression is limited to the liver when delivered via tail vein injection. Luciferase expression levels in liver are quantitated by measuring light output, using an IVIS imager (Xenogen) following administration of the luciferin substrate (Caliper Life Sciences). Pre-dose luminescence levels are measured prior to administration of the RDVs. Luciferin in PBS (15 mg/mL) is intraperitoneally (IP) injected in a volume of 150 uL. After a four minute incubation period mice are anesthetized with isoflurane and placed in the IVIS imager. The RDVs (containing siRNA) in PBS vehicle were tail vein injected n a volume of 0.2 mL. Final dose levels ranged from 0.3 to 3 mg/kg siRNA. PBS vehicle alone was dosed as a control. Three hours post dose, mice were bled retro-orbitally to obtain plasma for cytokine analysis. Mice were imaged 48 hours post dose using the method described above. Changes in luciferin light output directly correlate with luciferase mRNA levels and represent an indirect measure of luciferase siRNA activity. In vivo efficacy results are expressed as % inhibition of luminescence relative to pre-dose luminescence levels. Plasma cytokine levels were determined using the Searchlight multiplexed cytokine chemoluminescent array (Pierce/Thermo). Systemic administration of the luciferase siRNA RDVs decreased luciferase expression in a dose dependant manner.

For another data set, the system named is IL-6. The experiment in a line: Mouse in vivo cytokine IL-6 induction (plasma, Searchlight multiplexed cytokine array). The conditions noted are these: RDVs containing luciferase siRNA; plasma 3 hours post dose; relative to PBS control. The protocol: as §1, with “1:” for “2:”, “IL-6” for “mKC”

Regarding `CCCCCCCCOC[C@H](CN(C)C)OCCCCO[C@H]1CC[C@@]2(C)C(=CC[C@H]3[C@@H]4CC[C@H]([C@H](C)CCCC(C)C)[C@@]4(C)CC[C@@H]32)C1` [Compound 4, (2S)-2-{4-[(3β)-cholest-5-en-3-yloxy]butoxy}-N,N-dimethyl-3-(octyloxy)propan-1-amine], the “Mouse plasma level of cytokine mKC” value with mKC is listed as “minimal cytokine induction”. The “Average % Inhibition of Bioluminescence” value in data set [1] stood at 87%. Moreover, the “In vivo efficacy (decrease of luciferase expression)” value in data set [1] (RDVs containing luciferase siRNA, 0.3 to 3 mg/kg siRNA, 48 hours post dose) is reported as “Greater efficacy”. Also, the “Mouse plasma level of cytokine IL-6” value in the data set with IL-6 is “minimal cytokine induction”.

In the case of `CCCCC/C=C\C/C=C\CCCCCCCCOCC(CN(C)C)OCCCCCCCCO[C@H]1CC[C@@]2(C)C(=CC[C@H]3[C@@H]4CC[C@H]([C@H](C)CCCC(C)C)[C@@]4(C)CC[C@@H]32)C1` (stereo partly shown) [Compound 12, S-Octyl CLinDMA, reference compound], the “Mouse plasma level of cytokine mKC” value in the data set on mKC is “significantly increased”. For the same molecule, the “Average % Inhibition of Bioluminescence” value in data set [1] was 76%. Also, the “Mouse plasma level of cytokine IL-6” value in the data set on IL-6 is “significantly increased”.

The values above are taken from US20120253032A1, “NOVEL CATIONIC LIPIDS WITH SHORT LIPID CHAINS FOR OLIGONUCLEOTIDE DELIVERY” (priority 2009, published 2012).
